ChEMBL document CHEMBL4041518, “Novel tacrine-1,2,3-triazole hybrids: In vitro, in vivo biological evaluation and docking study of cholinesterase inhibitors” (Eur J Med Chem, 2017)
Active and inactive are the calls of the source. No cut-off for these calls is given here.

What was measured:
[1] = target: Acetylcholinesterase (Electrophorus electricus) (UniProt O42275); assay: Potency index, ratio of rivastigmine IC50 to compound IC50 for electric eel AChE
[2] = target: Cholinesterase (Equus caballus) (UniProt P81908); assay: Potency index, ratio of rivastigmine IC50 to compound IC50 for equine serum BuChE
Chain of Cholinesterase (Equus caballus) (P81908 whole entry): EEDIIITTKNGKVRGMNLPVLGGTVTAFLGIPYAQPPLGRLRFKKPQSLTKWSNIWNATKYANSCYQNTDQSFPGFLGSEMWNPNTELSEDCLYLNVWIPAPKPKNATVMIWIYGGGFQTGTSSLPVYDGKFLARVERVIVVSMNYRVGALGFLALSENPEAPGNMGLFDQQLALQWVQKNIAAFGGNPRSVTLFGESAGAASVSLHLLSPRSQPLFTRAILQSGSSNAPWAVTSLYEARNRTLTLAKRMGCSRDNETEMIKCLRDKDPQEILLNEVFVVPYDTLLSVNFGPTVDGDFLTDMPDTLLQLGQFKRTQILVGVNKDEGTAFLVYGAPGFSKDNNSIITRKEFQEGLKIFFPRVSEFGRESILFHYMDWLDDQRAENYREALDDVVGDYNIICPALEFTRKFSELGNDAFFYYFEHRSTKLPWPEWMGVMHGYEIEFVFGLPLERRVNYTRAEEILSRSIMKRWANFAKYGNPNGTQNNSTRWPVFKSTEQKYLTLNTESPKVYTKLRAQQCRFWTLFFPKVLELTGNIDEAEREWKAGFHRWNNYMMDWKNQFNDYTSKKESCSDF

Acetylcholinesterase [3] = target: T1, Acetylcholinesterase (Electrophorus electricus, UniProt O42275)
T1 sequence (O42275 whole entry): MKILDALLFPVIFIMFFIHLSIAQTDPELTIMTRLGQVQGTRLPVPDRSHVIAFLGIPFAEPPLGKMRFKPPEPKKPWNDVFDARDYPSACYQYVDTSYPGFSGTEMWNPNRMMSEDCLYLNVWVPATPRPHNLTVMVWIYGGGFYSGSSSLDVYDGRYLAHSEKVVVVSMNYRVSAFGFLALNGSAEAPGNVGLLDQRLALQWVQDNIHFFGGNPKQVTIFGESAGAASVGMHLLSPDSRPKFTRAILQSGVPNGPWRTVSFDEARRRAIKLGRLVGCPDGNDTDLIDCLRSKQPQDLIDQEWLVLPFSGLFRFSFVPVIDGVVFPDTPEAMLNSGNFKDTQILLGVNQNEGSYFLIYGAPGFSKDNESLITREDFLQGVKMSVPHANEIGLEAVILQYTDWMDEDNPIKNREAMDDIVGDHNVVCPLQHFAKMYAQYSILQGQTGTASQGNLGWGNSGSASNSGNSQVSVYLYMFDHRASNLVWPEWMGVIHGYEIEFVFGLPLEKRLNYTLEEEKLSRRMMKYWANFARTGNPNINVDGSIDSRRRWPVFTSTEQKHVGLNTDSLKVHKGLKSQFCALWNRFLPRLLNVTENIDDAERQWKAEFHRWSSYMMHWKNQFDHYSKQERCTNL
Description: Inhibition of electric eel AChE using acetylthiocholine iodide as substrate preincubated for 15 mins followed by substrate addition measured after 20 mins by Ellman's method

Cholinesterase [4] = target: T2, Cholinesterase (Equus caballus, UniProt P81908)
T2 sequence (P81908 whole entry): as the sequence (P81908 whole entry) above
Description: Inhibition of equine serum BuChE using butyrylthiocholine iodide as substrate preincubated for 15 mins followed by substrate addition measured after 20 mins by Ellman's method

MCF7 = assay: cells; conditions: Homo sapiens, MCF7, 72 h
Description: Cytotoxicity against human MCF7 cells assessed as reduction in cell viability after 72 hrs by MTT assay

T47D = assay: cells; conditions: Homo sapiens, 72 h
Description: Cytotoxicity against human T47D cells assessed as reduction in cell viability after 72 hrs by MTT assay

MDA-MB-231 = assay: cells; conditions: Homo sapiens, MDA-MB-231, 72 h
Description: Cytotoxicity against human MDA-MB-231 cells assessed as reduction in cell viability after 72 hrs by MTT assay

Cholinesterase [5] = target: T2, Cholinesterase; assay: Mixed-type inhibition of equine serum BuChE using butyrylthiocholine iodide as substrate preincubated for 15 mins followed by substrate addition measured after 20 mins by Lineweaver-Burk plot analysis
Acetylcholinesterase [6] = target: T1, Acetylcholinesterase; assay: Mixed-type inhibition of electric eel AChE using acetylthiocholine iodide as substrate preincubated for 15 mins followed by substrate addition measured after 20 mins by Lineweaver-Burk plot analysis
[7] = Antioxidant activity assessed as DPPH radical scavenging activity incubated under dark condition for 30 mins by UV-Visible spectrophotometric method; format: functional
PC-12 [8] = assay: Neuroprotective activity against H2O2-induced cell death in rat PC12 cells assessed as cell viability at 50 uM preincubated for 3 hrs followed by H2O2 addition measured after 24 hrs by MTT assay relative to control; format: functional; conditions: read-out: Activity
PC-12 [9] = assay: Neuroprotective activity against H2O2-induced cell death in rat PC12 cells assessed as cell viability at 100 uM preincubated for 3 hrs followed by H2O2 addition measured after 24 hrs by MTT assay relative to control; format: functional; conditions: read-out: Activity
PC-12 [10] = assay: Neuroprotective activity against H2O2-induced cell death in rat PC12 cells assessed as cell viability at 10 uM preincubated for 3 hrs followed by H2O2 addition measured after 24 hrs by MTT assay relative to control; format: functional; conditions: read-out: Activity
Rattus norvegicus [11] = assay: (§1) Reversal of scopolamine-induced memory impairment in Wistar albino rat assessed as decrease in escape latency time during 4 days training period at 5 to 20 mg/kg, ip administered 60 mins prior to test for 4 consecutive days followed by scopolamine challenge 30 mins prior to test by Morris water maze test; format: functional, organism-based
Rattus norvegicus [12] = assay: as §1, with “traveled distance” for “escape latency time”; format: functional, organism-based
Rattus norvegicus [13] = assay: Reversal of scopolamine-induced memory impairment in Wistar albino rat assessed as change in swimming speed during 4 days training period at 5 to 20 mg/kg, ip administered 60 mins prior to test for 4 consecutive days followed by scopolamine challenge 30 mins prior to test by Morris water maze test; format: functional, organism-based
Rattus norvegicus [14] = assay: Reversal of scopolamine-induced memory impairment in Wistar albino rat assessed as increase in time spent in target quadrant at 5 to 20 mg/kg, ip administered for 4 consecutive days 60 mins prior to test followed by scopolamine challenge 30 mins prior to test measured on day 5 by Morris water maze test; format: functional, organism-based

Chain of Acetylcholinesterase (Electrophorus electricus) (O42275 24-633 limits assumed): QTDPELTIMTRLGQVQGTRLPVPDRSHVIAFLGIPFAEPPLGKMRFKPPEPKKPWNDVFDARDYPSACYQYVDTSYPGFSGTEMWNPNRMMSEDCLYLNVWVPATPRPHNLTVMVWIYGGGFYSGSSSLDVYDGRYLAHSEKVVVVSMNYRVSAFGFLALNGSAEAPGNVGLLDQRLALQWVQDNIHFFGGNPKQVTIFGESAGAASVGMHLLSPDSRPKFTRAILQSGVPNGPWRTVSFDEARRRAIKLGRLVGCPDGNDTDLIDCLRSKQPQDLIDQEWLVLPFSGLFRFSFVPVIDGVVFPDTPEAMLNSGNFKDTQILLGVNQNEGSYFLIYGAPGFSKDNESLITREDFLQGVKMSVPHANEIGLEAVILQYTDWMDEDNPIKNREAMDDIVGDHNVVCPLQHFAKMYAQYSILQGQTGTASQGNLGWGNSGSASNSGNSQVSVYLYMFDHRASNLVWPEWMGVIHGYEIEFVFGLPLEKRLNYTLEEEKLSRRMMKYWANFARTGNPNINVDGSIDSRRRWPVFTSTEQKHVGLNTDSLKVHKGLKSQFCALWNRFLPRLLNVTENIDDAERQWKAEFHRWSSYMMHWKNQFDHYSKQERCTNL

In the case of `Cc1ccc(Cn2cc(CNc3c4c(nc5ccccc35)CCCC4)nn2)cc1`, the Ratio IC50 [1] is reported as 3 to 21, the Ratio IC50 [2] is reported as 2 to 140 and the IC50 (Acetylcholinesterase [3]) is reported as 0.621 µM. It also gave an IC50 (Cholinesterase [4]) of 0.072 µM.
With `Clc1ccc2c(NCc3cn(Cc4ccccc4)nn3)c3c(nc2c1)CCCC3` the Ratio IC50 [1] was 3 to 21, the Ratio IC50 [2] was 2 to 140 and the IC50 (Acetylcholinesterase [3]) was 2.32 µM. It also gave an IC50 (Cholinesterase [4]) of 0.197 µM, an IC50 (MCF7) greater than 100 µM and an IC50 (T47D) of 97.3 µM. For the same molecule, the IC50 (MDA-MB-231) was greater than 100 µM.
Work on `Clc1ccc2nc3c(c(NCc4cn(Cc5ccccc5)nn4)c2c1)CCCC3` yielded a Ratio IC50 [1] of 3 to 21, a Ratio IC50 [2] of 2 to 140 and an IC50 (Acetylcholinesterase [3]) of 2.39 µM. The IC50 (Cholinesterase [4]) was greater than 5 µM.
`Fc1ccc(Cn2cc(CNc3c4c(nc5ccccc35)CCCC4)nn2)cc1` showed a Ratio IC50 [1] of 3 to 21, a Ratio IC50 [2] of 2 to 140 and an IC50 (Acetylcholinesterase [3]) of 2.38 µM. For the same molecule, the IC50 (Cholinesterase [4]) was 0.059 µM, the IC50 (MCF7) was greater than 100 µM and the IC50 (T47D) was greater than 100 µM. The IC50 (MDA-MB-231) was greater than 100 µM.
Work on `COc1ccc(Cn2cc(CNc3c4c(nc5ccccc35)CCCC4)nn2)cc1` yielded a Ratio IC50 [1] of 3 to 21, a Ratio IC50 [2] of 2 to 140 and a Ki (Cholinesterase [5]) of 0.121 µM. It also gave an IC50 (Acetylcholinesterase [3]) of 2 µM, an IC50 (Cholinesterase [4]) of 0.055 µM and an IC50 (MCF7) greater than 100 µM. The IC50 (T47D) was 94.1 µM and the IC50 (MDA-MB-231) was greater than 100 µM.
Work on `Fc1ccc(Cn2cc(CNc3c4c(nc5ccc(Cl)cc35)CCCC4)nn2)cc1` yielded a Ratio IC50 [1] of 3 to 21, a Ratio IC50 [2] of 2 to 140 and an IC50 (Acetylcholinesterase [3]) of 1.44 µM. The IC50 (Cholinesterase [4]) was 0.721 µM.
For `COc1ccc(Cn2cc(CNc3c4c(nc5cc(Cl)ccc35)CCCC4)nn2)cc1`, the Ratio IC50 [1] was 3 to 21, the Ratio IC50 [2] was 2 to 140 and the IC50 (Acetylcholinesterase [3]) was 0.737 µM. It also gave an IC50 (Cholinesterase [4]) of 0.115 µM.
Molecule `Clc1ccc(Cn2cc(CNc3c4c(nc5cc(Cl)ccc35)CCCC4)nn2)cc1` has a Ratio IC50 [1] of 3 to 21, a Ratio IC50 [2] of 2 to 140 and an IC50 (Acetylcholinesterase [3]) of 0.983 µM. It also gave an IC50 (Cholinesterase [4]) greater than 5 µM.
In the case of `Clc1ccc(Cn2cc(CNc3c4c(nc5ccc(Cl)cc35)CCCC4)nn2)cc1`, the Ratio IC50 [1] is reported as 3 to 21, the Ratio IC50 [2] is reported as 2 to 140 and the IC50 (Acetylcholinesterase [3]) is reported as 1.96 µM. For the same molecule, the IC50 (Cholinesterase [4]) was 3.94 µM.
With `Cc1ccc(Cn2cc(CNc3c4c(nc5cc(Cl)ccc35)CCCC4)nn2)cc1` the Ratio IC50 [1] was 3 to 21, the Ratio IC50 [2] was 2 to 140 and the IC50 (Acetylcholinesterase [3]) was 1.11 µM. For the same molecule, the IC50 (Cholinesterase [4]) was 0.065 µM.
`COc1ccc(Cn2cc(CNc3c4c(nc5ccc(Cl)cc35)CCCC4)nn2)cc1` showed a Ratio IC50 [1] of 3 to 21, a Ratio IC50 [2] of 2 to 140 and a Ki (Acetylcholinesterase [6]) of 0.94 µM. For the same molecule, the Activity [7] was “inactive”, the viability at 50 µM (PC-12 [8]) was 73.5% and the viability at 100 µM (PC-12 [9]) was 74.8%. For the same molecule, the viability at 10 µM (PC-12 [10]) was 65.4%, the Activity (Rattus norvegicus [11]) was “Active” and the Activity (Rattus norvegicus [12]) was “Active”. For the same molecule, the Activity (Rattus norvegicus [13]) was “inactive”, the Activity (Rattus norvegicus [14]) was “Active” and the IC50 (Acetylcholinesterase [3]) was 0.521 µM. The IC50 (Cholinesterase [4]) was 1.85 µM, the IC50 (MCF7) was greater than 100 µM and the IC50 (T47D) was greater than 100 µM. The IC50 (MDA-MB-231) was greater than 100 µM.
Molecule `c1ccc(Cn2cc(CNc3c4c(nc5ccccc35)CCCC4)nn2)cc1` has a Ratio IC50 [1] of 3 to 21, a Ratio IC50 [2] of 2 to 140 and an IC50 (Acetylcholinesterase [3]) of 3.3 µM. It also gave an IC50 (Cholinesterase [4]) of 0.18 µM, an IC50 (MCF7) of 97.1 µM and an IC50 (T47D) of 62.9 µM. It also gave an IC50 (MDA-MB-231) of 81.4 µM.
For `Cc1ccc(Cn2cc(CNc3c4c(nc5ccc(Cl)cc35)CCCC4)nn2)cc1`, the Ratio IC50 [1] was 3 to 21, the Ratio IC50 [2] was 2 to 140 and the Activity [7] was “inactive”. For the same molecule, the IC50 (Acetylcholinesterase [3]) was 0.768 µM and the IC50 (Cholinesterase [4]) was 0.747 µM.
With `Fc1ccc(Cn2cc(CNc3c4c(nc5cc(Cl)ccc35)CCCC4)nn2)cc1` the Ratio IC50 [1] was 3 to 21, the Ratio IC50 [2] was 2 to 140 and the IC50 (Acetylcholinesterase [3]) was 2.28 µM. The IC50 (Cholinesterase [4]) was 0.216 µM, the IC50 (MCF7) was 87.5 µM and the IC50 (T47D) was 80 µM. For the same molecule, the IC50 (MDA-MB-231) was 83.4 µM.
For `Clc1ccc(Cn2cc(CNc3c4c(nc5ccccc35)CCCC4)nn2)cc1`, the Ratio IC50 [1] was 3 to 21, the Ratio IC50 [2] was 2 to 140 and the Activity [7] was “inactive”. It also gave an IC50 (Acetylcholinesterase [3]) of 1.97 µM and an IC50 (Cholinesterase [4]) of 0.151 µM.
